Reference: PubChem BioAssay (NCI)
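96-well plates; 48 h exposure; 5 concentrations. Endpoints by linear interpolation between flanking doses. Not reached: highest tested concentration assigned. TGI: concentration producing complete growth inhibition.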

Assays:
Test in all cases: inhibition of tumour cell growth, NCI panel, 48 h
UO-31 renal = tested on: UO-31 renal
HCT-15 colon = tested on: HCT-15 colon
BT-549 breast = tested on: BT-549 breast
RPMI-8226 leukemia = tested on: RPMI-8226 leukemia
MDA-MB-231 breast = tested on: MDA-MB-231 breast
COLO 205 colon = tested on: COLO 205 colon
TK-10 renal = tested on: TK-10 renal
HOP-62 NSCLC = tested on: HOP-62 NSCLC
OVCAR-4 ovarian = tested on: OVCAR-4 ovarian
SK-MEL-2 melanoma = tested on: SK-MEL-2 melanoma
HCC-2998 colon = tested on: HCC-2998 colon
MCF7 breast = tested on: MCF7 breast
LOX IMVI melanoma = tested on: LOX IMVI melanoma
SK-OV-3 ovarian = tested on: SK-OV-3 ovarian
IGROV1 ovarian = tested on: IGROV1 ovarian
SF-268 CNS = tested on: SF-268 CNS
MDA-N = tested on: MDA-N
HL-60(TB) leukemia = tested on: HL-60(TB) leukemia
A498 renal = tested on: A498 renal

SMILES	TGI (UO-31 renal)	TGI (HCT-15 colon)	TGI (BT-549 breast)	TGI (RPMI-8226 leukemia)	TGI (MDA-MB-231 breast)	TGI (COLO 205 colon)	TGI (TK-10 renal)	TGI (HOP-62 NSCLC)	TGI (OVCAR-4 ovarian)	TGI (SK-MEL-2 melanoma)	TGI (HCC-2998 colon)	TGI (MCF7 breast)	TGI (LOX IMVI melanoma)	TGI (SK-OV-3 ovarian)	TGI (IGROV1 ovarian)	TGI (SF-268 CNS)	TGI (MDA-N)	TGI (HL-60(TB) leukemia)	TGI (A498 renal)
C[n+]1c2ccccc2c(C(=O)Nc2ccc(S(=O)(=O)Nc3ccnn3-c3ccccc3)cc2)c2ccccc21	> 100 µM	> 100 µM	> 100 µM	> 100 µM	> 100 µM	> 100 µM	> 100 µM	> 100 µM	> 100 µM	> 100 µM	> 100 µM	> 100 µM	> 100 µM	> 100 µM	> 100 µM	> 100 µM	> 100 µM	–	–
N#CCc1nc2ccccc2c(=O)[nH]1	> 100 µM	> 100 µM	–	–	> 100 µM	> 100 µM	> 100 µM	> 100 µM	> 100 µM	> 100 µM	> 100 µM	> 100 µM	> 100 µM	> 100 µM	> 100 µM	–	> 100 µM	> 100 µM	–
O=C1C(Cl)=C(OCCCCl)C(=O)c2c(O)ccc(O)c21	12.1 µM	5.06 µM	3.86 µM	5.58 µM	6 µM	3.09 µM	9.48 µM	22 µM	7.14 µM	–	30.2 µM	3.12 µM	3.35 µM	35.9 µM	13.1 µM	8.61 µM	2.98 µM	–	28.5 µM
CCNCCNc1c2ccccc2nc2ccccc12	5.02 µM	5.83 µM	10.2 µM	–	3.02 µM	3.42 µM	23.3 µM	4.21 µM	11.1 µM	3.63 µM	1.09 µM	3.4 µM	2.95 µM	12.2 µM	9.82 µM	5.52 µM	2.81 µM	> 100 µM	–
O=C1c2c(ccc3c2CCCC3)CC12Cc1ccc3c(c1C2=O)CCCC3	> 100 µM	> 100 µM	–	> 100 µM	> 100 µM	–	> 100 µM	> 100 µM	> 100 µM	> 100 µM	> 100 µM	> 100 µM	> 100 µM	> 100 µM	> 100 µM	> 100 µM	> 100 µM	> 100 µM	> 100 µM
COc1ccc(/C=C2\NC(=S)N(CN3CCCCC3)C2=O)cc1	> 100 µM	> 100 µM	–	> 100 µM	> 100 µM	85.6 µM	> 100 µM	> 100 µM	78.8 µM	> 100 µM	–	61.1 µM	93.3 µM	> 100 µM	> 100 µM	50.4 µM	> 100 µM	–	> 100 µM
O=Nc1c(O)cc(Nc2ccc(Br)cc2)c2ccccc12	23 µM	15 µM	–	> 86.9 µM	48.3 µM	26.6 µM	27.7 µM	19.1 µM	> 100 µM	3.64 µM	19.4 µM	17.8 µM	> 31.2 µM	30.8 µM	> 100 µM	> 55.6 µM	3.41 µM	55.9 µM	22.2 µM
CCOC(CN=C=S)OCC	> 10 µM	> 10 µM	–	> 10 µM	> 10 µM	> 10 µM	> 10 µM	> 10 µM	> 10 µM	> 10 µM	> 10 µM	> 10 µM	> 10 µM	> 10 µM	> 10 µM	> 10 µM	> 10 µM	> 10 µM	> 10 µM
Cc1ccc(C2=Nc3cccc4cccc(c34)N2)cc1	> 100 µM	> 100 µM	> 100 µM	> 100 µM	> 100 µM	> 100 µM	> 100 µM	> 100 µM	> 100 µM	> 100 µM	> 100 µM	> 100 µM	> 100 µM	> 100 µM	> 100 µM	> 100 µM	> 100 µM	> 100 µM	–
Nc1ncnc2ccc(Sc3ccc4ncnc(N)c4c3)cc12	> 100 µM	> 100 µM	> 100 µM	> 100 µM	> 100 µM	> 100 µM	> 100 µM	> 100 µM	> 100 µM	> 100 µM	–	> 100 µM	> 100 µM	> 100 µM	> 100 µM	> 100 µM	–	> 100 µM	> 100 µM
O=C1c2ccccc2S(=O)(=O)c2c1cccc2[N+](=O)[O-]	3.92 µM	2.95 µM	> 8.34 µM	5.94 µM	5.36 µM	2.77 µM	> 10 µM	> 10 µM	4.6 µM	> 10 µM	> 10 µM	3.31 µM	5.21 µM	> 10 µM	5.08 µM	> 9.38 µM	–	4.97 µM	> 8.45 µM
COC(=O)C(CC12CC3CC(CC(C3)C1)C2)NC(=O)C(N)CC(=O)O (stereo not drawn)	> 100 µM	> 100 µM	> 100 µM	> 100 µM	–	> 100 µM	> 100 µM	> 100 µM	> 100 µM	> 100 µM	> 100 µM	–	–	> 100 µM	> 100 µM	> 100 µM	> 100 µM	–	–
CCN(CC)CCCNc1nc(=O)[nH]c(C)c1C(=O)Nc1cccc2cc3ccccc3cc12	> 100 µM	> 100 µM	–	> 100 µM	> 100 µM	> 100 µM	> 100 µM	> 100 µM	> 100 µM	> 100 µM	> 100 µM	> 100 µM	> 100 µM	> 100 µM	> 100 µM	–	> 100 µM	> 100 µM	–
CC(C)(Br)C(Br)CCC(C)(Br)C(Br)CO (stereo not drawn)	> 10 µM	> 10 µM	> 10 µM	> 10 µM	> 10 µM	> 10 µM	–	> 10 µM	> 10 µM	–	> 10 µM	> 10 µM	–	> 10 µM	> 10 µM	> 10 µM	> 10 µM	–	> 10 µM
